Data set [1] has as its system Jurkat. The data set is described as follows: Synergistic induction of cell cycle arrest in human Jurkat cells assessed as reduction in cyclin D1 gene expression at 50 uM incubated for 24 hrs in presence of doxorubicin at 50 nM by qPCR analysis. It is filed as functional, cell-based. A general note: Quantitative PCR measures a nucleic acid by following its amplification.

Data set [2] deals with L5178Y. Nature of the data set: Antiproliferative activity against parental mouse L5178Y cells assessed as inhibition of cell growth incubated for 72 hrs by MTT assay. The class given is functional, cell-based. (Tetrazolium dyes change colour on reduction, which living cells bring about.)
The subject of data set [3] is Jurkat. Nature of the data set: Induction of cell cycle arrest in human Jurkat cells assessed as reduction in cyclin D1 gene expression at 50 uM incubated for 24 hrs by qPCR analysis. It is filed as functional, cell-based.
Data set [4] deals with L5178Y. Nature of the data set: Synergistic antiproliferative activity against multidrug resistant mouse L5178Y cells expressing ABCB1 assessed as combination index at 200 uM incubated for 72 hrs in presence of doxorubicin at 17.242 uM by checkerboard assay. The class given is functional.
For data set [5], the system named is Jurkat. The data set is described as follows: Induction of cell cycle arrest in human Jurkat cells assessed as increase in p21 gene expression at 50 uM incubated for 24 hrs by qPCR analysis. It is filed as functional, cell-based.
Data set [6] can be described thus: Cytotoxicity against human skin fibroblast cells assessed as inhibition of cell growth incubated for 72 hrs by MTS assay. It is filed as toxicity, cell-based.
The nature of data set [7]: Selectivity index, ratio of IC50 for parental mouse L5178Y cells to IC50 for multidrug resistant mouse L5178Y cells expressing ABCB1. The class given is functional.
Data set [8] deals with Jurkat. The data set is described as follows: Synergistic induction of cell cycle arrest in human Jurkat cells assessed as increase in p53 gene expression at 50 uM incubated for 24 hrs in presence of doxorubicin at 50 nM by qPCR analysis. The class given is functional, cell-based.
The test system of data set [9] is Jurkat. Nature of the data set: Induction of cell cycle arrest in human Jurkat cells assessed as reduction in cyclin E1 gene expression at 50 uM incubated for 24 hrs by qPCR analysis. It is filed as functional, cell-based.
Data set [10] deals with L5178Y. The data set is described as follows: Cytotoxicity against parental mouse L5178Y cells assessed as inhibition of cell growth incubated for 24 hrs by MTT assay. The class given is functional, cell-based.
Data set [11] relates to L5178Y. The data set is described as follows: Antiproliferative activity against multidrug resistant mouse L5178Y cells expressing ABCB1 assessed as inhibition of cell growth incubated for 72 hrs by MTT assay. The class given is functional, cell-based.
For data set [12], the system named is L5178Y. The data set is described as follows: Cytotoxicity against multidrug resistant mouse L5178Y cells expressing ABCB1 assessed as inhibition of cell growth incubated for 24 hrs by MTT assay. It is filed as functional, cell-based.
The nature of data set [13]: Cytotoxicity against human HuT 102 cells assessed as inhibition of cell growth incubated for 72 hrs by MTS assay. The class given is functional, cell-based. The following applies: HuT-102, 72 h.
For data set [14], the system named is Jurkat. Nature of the data set: Synergistic induction of cell cycle arrest in human Jurkat cells assessed as increase in p21 gene expression at 50 uM incubated for 24 hrs in presence of doxorubicin at 50 nM by qPCR analysis. It is filed as functional, cell-based.
The subject of data set [15] is Jurkat. Nature of the data set: Induction of cell cycle arrest in human Jurkat cells assessed as increase in p21 transcription at 50 uM incubated for 24 hrs by qPCR analysis. It is filed as functional, cell-based.
Data set [16] has as its system L5178Y. Nature of the data set: Synergistic antiproliferative activity against multidrug resistant mouse L5178Y cells expressing ABCB1 assessed as combination index at 60 uM incubated for 72 hrs in presence of doxorubicin at 17.242 uM by checkerboard assay. The class given is functional.
Data set [17] in a line: Upregulation of ABCC1 gene expression in human SH-SY5Y cells at 20 uM incubated for 96 hrs by RT-PCR analysis. The class given is toxicity, cell-based.
Data set [18] can be described thus: Upregulation of ABCB1 gene expression in human SH-SY5Y cells at 20 uM incubated for 96 hrs by RT-PCR analysis. The class given is toxicity, cell-based.
Data set [19] concerns Jurkat. The data set is described as follows: Synergistic induction of cell cycle arrest in human Jurkat cells assessed as reduction in cyclin E1 gene expression at 50 uM incubated for 24 hrs in presence of doxorubicin at 50 nM by qPCR analysis. It is filed as functional, cell-based.
Data set [20] is described as follows: Upregulation of ABCG2 gene expression in human SH-SY5Y cells at 20 uM incubated for 96 hrs by RT-PCR analysis. It is filed as toxicity, cell-based.
Data set [21] deals with Jurkat. Nature of the data set: Induction of cell cycle arrest in human Jurkat cells assessed as increase in p53 transcription at 50 uM incubated for 24 hrs by qPCR analysis. It is filed as functional, cell-based.

The source made the active and inactive calls. No cut-off for these calls is given here.

For `CCCC([Se]c1ccccc1)c1nc(N)nc(N2CCN(C)CC2)n1.Cl` (configuration not stated), the result with Jurkat [1], in the data set with Jurkat [3], in the data set with Jurkat [5], in the data set on Jurkat [8], with Jurkat [9] and in the data set with Jurkat [14] was Active. Besides, the IC50 in the data set on L5178Y [2] is 14.4 µM; with L5178Y [10], 38.6 µM; in the data set on L5178Y [11], 6.03 µM; in the data set on L5178Y [12], 76.8 µM; in [13] it was 54.3 µM. The CI in the data set on L5178Y [4] was 0.092. The IC50 at 72 h in data set [6] was more than 100 µM. In [7], the “Ratio IC50” value was more than 2.
On to `CN1CCN(c2nc(N)nc(CCCSc3ccc4ccccc4c3)n2)CC1.Cl`, for which the result in the data set on Jurkat [1], with Jurkat [15], with Jurkat [3], in the data set with Jurkat [19], with Jurkat [8] and in the data set with Jurkat [9] was Active. In addition, the outcome in the data set with Jurkat [21] and in the data set with Jurkat [14] was Active. In addition, the IC50 was 6.71 µM with L5178Y [2]; 11.4 µM in the data set with L5178Y [10]; 5.35 µM in the data set with L5178Y [11]; 16.7 µM with L5178Y [12]; 19.7 µM in [13]. In addition, the CI in the data set on L5178Y [16] is reported as 0.18. For the same compound, the Activity result in data set [17], in [18] and in data set [20] was “Toxic” throughout. For the same compound, in data set [6], the IC50 at 72 h was 79.1 µM.

As a reminder, the IC50 is the concentration needed to halve the response being measured.

(Values after ChEMBL document CHEMBL5344405, “Seleno-vs. thioether triazine derivatives in search for new anticancer agents overcoming multidrug resistance in lymphoma” (Eur J Med Chem, 2022).)
